According to a melting point compilation (Tetko et al.):

Row | Compound | melting point [°C]
1 | CCOc1cc(OCC)c(C(=O)CCC(=O)O)cc1OCC | 150
2 | CCOc1nc(F)cc2nc(S(=O)(=O)Nc3c(Cl)cccc3C(=O)OC)nn12 | 217
3 | C=CCC1(O)CCC2C3CCC4=CCCCC4C3CCC21C (centres undefined) | 80
4 | CCN1CN(CC)CN(CC)C1 | 70
5 | Brc1cnc(N2CCCC2)nc1OCc1ccccc1 | 107
6 | O=C(O)C[C@@H](NC(=O)OCC1c2ccccc2-c2ccccc21)c1ccc(Br)cc1 | 192
7 | Cc1cnc(C)cn1 | 15
8 | CN(N=Cc1ccc(F)cc1)P(=O)(N1CC1)N1CC1 | 106
9 | CCCC1C(=O)C2(C)CCC1C2(C)C (centres undefined) | 128
10 | COc1ccc(N/C=C2\C(=O)C3(C)CCC2C3(C)C)cc1 (centres undefined) | 171
11 | N#Cc1c(N=[N+]([O-])c2cnn(-c3ccccc3)c2C#N)cnn1-c1ccccc1 | 265
12 | Cc1ccc2c(c1)C1C(C3C2C2(Cl)C(Cl)=C(Cl)C3(Cl)C2(Cl)Cl)C2(Cl)C(Cl)=C(Cl)C1(Cl)C2(Cl)Cl (centres undefined) | 160 to 165
13 | O=C(O)c1cc([N+](=O)[O-])c(Cl)c([N+](=O)[O-])c1Cl | 210 to 215
14 | c1ccc(CCCc2ccccc2)cc1 | 6
15 | CCOC(=O)c1c(Nc2ccc(OC)cc2)sc2c(-c3ccc(Cl)cc3)c(C#N)c(N)nc12 | 220 to 224
16 | CC(=O)N(C)c1cccc(-c2ccc3nnc(C)n3n2)c1 | 200 to 201
17 | O=C(O)c1ccccc1 | 122
18 | Cc1nn(C)c(C)c1C=O | 81.5
19 | C=CCC1(C2C=CCCC2)C(=O)NC(=S)NC1=O (centres undefined) | 148
20 | NS(=O)(=O)c1ccc(SCCO)c([N+](=O)[O-])c1 | 151
21 | Nc1ncc(Br)cc1Br | 104
22 | O=C1CCC(c2ccccc2)=NN1c1n[nH]c(=S)n1-c1ccccc1 | 180 to 182
23 | CCOc1ccc(C(N)=O)cc1 | 209
24 | O=C1CC(C(F)(F)F)=NN1c1ccccc1 | 193
25 | BrC1CCC(Br)C(Br)CCC(Br)C(Br)CCC1Br (centres undefined) | 173 to 177

Row | Compound | melting point [°C]
26 | CCOC(=O)C1=C(COCCN)NC(C)=C(C(=O)OC)C1c1ccccc1Cl (centres undefined) | 178
27 | O=[N+]([O-])c1ccsc1 | 78.5
28 | CCCOC(N)=O | 60
29 | CSC(SC)=C(C#N)C(=O)c1cccc(C)c1 | 53 to 55
30 | NC(=O)c1sc(Nc2ccc(Cl)cc2)nc1N | 220 to 222
31 | O=C1OC=CC(c2ccccc2)Cc2ccccc21 (centres undefined) | 120
32 | Clc1cc(Cl)c2oc3c(Cl)c(Cl)c(Cl)cc3c2c1 | 219
33 | CNC(=O)ON=CC(C)(C)S(C)(=O)=O | 141
34 | c1ccc(-c2ccccc2-c2ccccc2-c2ccccc2)cc1 | 118
35 | O=C(O)c1c(C(F)(F)F)ccnc1Cl | 159
36 | CCCCCCCCCCCC(=O)Oc1ccccc1 | 24.5
37 | Cc1oc(C(C)(C)C)cc1C(=O)Cl | 41 to 44
38 | CCCCCCCCCCCCCCCCCCOC(C)=O | 34.5
39 | CCCCCCCCCCCCSCCCCCCCCCCCC | 36 to 43
40 | O=C(C=Cc1ccc(OC(=O)c2ccco2)cc1)c1ccccc1 | 115
41 | CCCCCCCCCCC(O)CC (centres undefined) | 32
42 | O=c1[nH]c2ccc([N+](=O)[O-])cc2[nH]1 | 314 to 317
43 | CCCCC(C(N)=O)n1nnc2ccccc21 (centres undefined) | 118
44 | CC(CC(=O)OOC(C)(C)C)CC(C)(C)C (centres undefined) | -30
45 | OCCCc1ccccn1 | 34
46 | COc1cc2c(cc1OC)CN1C(=O)C(C)NC(=O)C1C2 (centres undefined) | 234
47 | O=S(=O)(O)c1ccc(Nc2ccccc2)cc1 | 206
48 | C[C@]12CCC(=O)C[C@H]1CC[C@@H]1[C@@H]2CC[C@]2(C)CCC[C@@]12O | 139 to 140
49 | CCN(CC)CCOC(=O)c1ccc(N)cc1 | 61
